Data taken from US7135162B2, “Agent for diagnosing and treating malignant tumors” (Cosmo Research Institute, priority 1997, dated 2006).
Values joined by “and” are separate entries in the source; they are usually repeats but may differ in a detail not shown here. Equal values may be shown once.

System: human ovarian cancer cisplatin-resistant cultured cell A2480CP
Assay: ^13C-NMR of excised cancer cells and femoral muscle after intravenous administration to tumour-bearing nude mice
Conditions: for ^13C Area integrated value, Cancer cells: 300 mg/kg, caudal vein, peak areas 90 to 160 ppm, relative to 100 = first animal after 8 hours, two animals
Description: Nude mice (female BALB Cnu/nu, about 8 mm in cancer diameter) were used after 3 weeks of the transplantation of 2×10^6 cells/animal of human ovarian cancer cisplatin-resistant cultured cell A2480CP to the right-side body subcutaneously. Preparation of ^13C-labeled 5-aminolevulinic acid aqueous solution:
5-Aminolevulinic acid hydrochloride in which the 5-position carbon was replaced with ^13C (Production Example 4) was used. The 5-aminolevulinic acid hydrochloride in which the 5-position carbon was replaced with ^13C was dissolved in distilled water at a ratio of 25 g/L, and the solution was neutralized to pH 7 with sodium hydroxide.
The thus neutralized solution was sterilized by immediately passing through a 0.22 μm filter and administered from the mouse caudal vein at a ratio of 12 μl per g body weight. This dose corresponds to 300 mg administration of 5-aminolevulinic acid hydrochloride per 1 kg body weight. After 2, 4 and 8 hours of the administration, mice were sacrificed and subjected to bloodletting, and then the cancer cells and femoral part were excised and packed in 10 mmφ NMR sample tubes to the same volume to measure ^13C-NMR by super-conductive NMR, JNM-A400 manufactured by JEOL, at an observation frequency of 100.50 MHz using a proton decoupling method.
After the measurement, peak areas of from 90 to 160 ppm were integrated, and relative values were calculated based on the value 100 of the first animal after 8 hours of the administration. The test was carried out using two animals for each condition.

## Cl.N[13CH2]C(=O)CCC(=O)O [^13C-labeled 5-aminolevulinic acid, 5-Aminolevulinic acid hydrochloride in which the 5-position carbon was replaced with ^13C]
2 hours after administration
  ^13C Area integrated value, Cancer cells: 19 and 22
4 hours after administration
  ^13C Area integrated value, Cancer cells: 89 and 73
8 hours after administration
  ^13C Area integrated value, Cancer cells: 100 and 87
Summary of Table 3, 2, 4 and 8 hours after administration
  existing frequency of ^13C, cancer cells versus muscle: higher in the cancer cells than in the muscle
